Test results taken from patent US20240174647A1 (NEURON23, INC., priority 2022, published 2024).

What follows are compounds tested against wt human LRRK2, catalytic site (Homo sapiens (Human), UniProt Q5S007) (assay: TR-FRET LanthaScreen Tb Kinase Activity Assay (LRRK2 kinase inhibition)). Conditions: 2 nM wt human LRRK2, 400 nM fluorescein-ERM (LRRKtide) peptide, 38 μM ATP, 120 minutes at room temperature.
Format: biochemical
Procedure: The compounds in Table 1 were tested for their inhibitory effect on LRRK2 kinase according to the following procedures.
The protocol for basic TR-FRET LanthaScreen Tb Kinase Activity Assay inhibitor studies were as follows. LanthaScreen Kinase Activity Assays (ThermoFisher/USA) to evaluate inhibitors were performed by addition of 100 nL of test compound in corresponding DMSO dilutions/5 μL of kinase/fluorescein-ERM(LRRKtide) peptide mixture, 5 μL of ATP into 384 well small volume plates. After incubation for 120 minutes at room temperature, the detection reagents containing Tb-anti-pLRRKtide antibody were added to monitor phosphrylation level of peptide. Then, after 60 min minutes incubation at room temperature plates were read in Envision. Data analysis of emission ratios was according to LanthaScreen Tb Kinase Activity Assay protocol.
Kinase and assay components were adjusted to final concentrations according to the kit protocol. For LRRK2: 2 nM wt human LRRK2, catalytic site, catalytic site (ThermoFisher/USA), 400 nM peptide, 38 μM ATP in 1× Kinase Buffer A.
Basic protocol for TR-FRET LanthaScreen Tb Kinase Activity Assay inhibitor studies involved two steps: • Enzymatic step: Addition of 100 nL of test compound in corresponding DMSO dilutions, 5 μL of kinase/substrate mixture, 5 μL of ATP into 384 well small volume plates. Incubation for 120 minutes at room temperature. • Detection step: Addition of 10 μL EDTA & antibody, read plate after 60 minutes. Data analysis of emission ratios according to KinEASE assay protocol.
Kinase and assay components were adjusted to final concentrations according to the kit protocol.
In the table below, activity is provided as follows: +++=IC50 less than 50 nM; ++=IC50 between 50 nM and 200 nM; +=IC50>=200 nM

Sequence of wt human LRRK2, catalytic site (Q5S007 1879-2138): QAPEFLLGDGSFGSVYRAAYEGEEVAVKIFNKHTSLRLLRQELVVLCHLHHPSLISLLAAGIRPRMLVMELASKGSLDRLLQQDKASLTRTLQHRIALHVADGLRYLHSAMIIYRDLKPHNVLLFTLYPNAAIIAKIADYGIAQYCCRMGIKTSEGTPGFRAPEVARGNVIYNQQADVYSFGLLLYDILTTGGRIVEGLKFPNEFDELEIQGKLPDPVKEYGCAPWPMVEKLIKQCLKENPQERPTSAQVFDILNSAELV

Structure (SMILES)	IC50 [nM]
CNc1nc(Nc2c(OC)ccc3nn(C)cc23)ncc1C(F)(F)F [Example 40, N2-(5-methoxy-2-methyl-2H-indazol-4-yl)-N-methyl-5-(trifluoromethyl) pyrimidine-2,4-diamine]	≥ 200
CNc1nc(Nc2c(F)ccc3nn(C)cc23)ncc1C(F)(F)F [Example 41, N2-(5-fluoro-2-methyl-2H-indazol-4-yl)-N4-methyl-5-(trifluoromethyl) pyrimidine-2,4-diamine]	≥ 200
CNc1nc(Nc2cc(F)cc3c2cnn3C)ncc1C(F)(F)F [Example 42, N2-(6-fluoro-1-methyl-1H-indazol-4-yl)-N4-methyl-5-(trifluoromethyl) pyrimidine-2,4-diamine]	< 50
CNc1nc(Nc2cc(C(C)C)cc3c2cnn3C)ncc1C(F)(F)F [Example 43, N2-(6-isopropyl-1-methyl-1H-indazol-4-yl)-N4-methyl-5-(trifluoromethyl) pyrimidine-2,4-diamine]	< 50
CNc1nc(Nc2cc(C#N)cc3c2cnn3C)ncc1C(F)(F)F [Example 44, 1-methyl-4-((4-(methylamino)-5-(trifluoromethyl)pyrimidin-2-yl)amino)-1H-indazole-6-carbonitrile]	< 50
CNc1nc(Nc2cc(C)cc3c2cnn3C)ncc1C(F)(F)F [Example 45, N2-(1,6-dimethyl-1H-indazol-4-yl)-N4-methyl-5-(trifluoromethyl)pyrimidine-2,4-diamine]	< 50
CNc1nc(Nc2cc(/C=C/C(=O)N3CCOCC3)cc3c2cnn3C)ncc1C(F)(F)F [Example 46, (E)-3-(1-methyl-4-((4-(methylamino)-5-(trifluoromethyl)pyrimidin-2-yl)amino)-1H-indazol-6-yl)-1-morpholinoprop-2-en-1-one]	< 50
CNc1nc(Nc2ccc(OC)c3c2cnn3C)ncc1C(F)(F)F [Example 47, N2-(7-methoxy-1-methyl-1H-indazol-4-yl)-N4-methyl-5-(trifluoromethyl) pyrimidine-2,4-diamine]	< 50
CNc1nc(Nc2cccc3[nH]nc(C)c23)ncc1C(F)(F)F [Example 48, N4-methyl-N2-(3-methyl-1H-indazol-4-yl)-5-(trifluoromethyl)pyrimidine-2,4-diamine]	50 to 200
CNc1nc(Nc2cc(C#N)cc3[nH]ncc23)ncc1C(F)(F)F [Example 49, 4-((4-(methylamino)-5-(trifluoromethyl)pyrimidin-2-yl)amino)-1H-indazole-6-carbonitrile]	< 50
CNc1nc(Nc2cc(CC#N)cc3[nH]ncc23)ncc1C(F)(F)F [Example 50, 2-(4-((4-(methylamino)-5-(trifluoromethyl)pyrimidin-2-yl)amino)-1H-indazol-6-yl)acetonitrile]	< 50
CNc1nc(Nc2cc(CC#N)cc3c2cnn3C)ncc1C(F)(F)F [Example 51, 2-(1-methyl-4-((4-(methylamino)-5-(trifluoromethyl)pyrimidin-2-yl)amino)-1H-indazol-6-yl)acetonitrile]	< 50
CNc1nc(Nc2cc(/C=C/C(=O)N3CCOCC3)cc3[nH]ncc23)ncc1C(F)(F)F [Example 52]	< 50
CNc1nc(Nc2cc(CCC(=O)N3CCOCC3)cc3[nH]ncc23)ncc1C(F)(F)F [Example 53, 3-(4-((4-(methylamino)-5-(trifluoromethyl)pyrimidin-2-yl)amino)-1H-indazol-6-yl)-1-morpholinopropan-1-one]	50 to 200
CNc1nc(Nc2cc(CCC(=O)N3CCOCC3)cc3c2cnn3C)ncc1C(F)(F)F [Example 54, 3-(1-methyl-4-((4-(methylamino)-5-(trifluoromethyl)pyrimidin-2-yl)amino)-1H-indazol-6-yl)-1-morpholinopropan-1-one]	50 to 200
CNc1nc(Nc2ccc(CC#N)c3c2cnn3C)ncc1C(F)(F)F [Example 55, 2-(1-methyl-4-((4-(methylamino)-5-(trifluoromethyl)pyrimidin-2-yl)amino)-1H-indazol-7-yl)acetonitrile]	< 50
CNc1nc(Nc2ccc(/C=C/C(=O)N3CCOCC3)c3[nH]ncc23)ncc1C(F)(F)F [Example 56, (E)-3-(4-((4-(methylamino)-5-(trifluoromethyl)pyrimidin-2-yl)amino)-1H-indazol-7-yl)-1-morpholinoprop-2-en-1-one]	< 50
CNc1nc(Nc2ccc(CCC(=O)N3CCOCC3)c3[nH]ncc23)ncc1C(F)(F)F [Example 57, 3-(4-((4-(methylamino)-5-(trifluoromethyl)pyrimidin-2-yl)amino)-1H-indazol-7-yl)-1-morpholinopropan-1-one]	< 50
CNc1nc(Nc2ccc(CCC(=O)N3CCOCC3)c3c2cnn3C)ncc1C(F)(F)F [Example 58, 3-(1-methyl-4-((4-(methylamino)-5-(trifluoromethyl)pyrimidin-2-yl)amino)-1H-indazol-7-yl)-1-morpholinopropan-1-one]	< 50
CNc1nc(Nc2ccc(/C(C)=C/C(=O)N3CCOCC3)c3c2cnn3C)ncc1C(F)(F)F [Example 59, (E)-3-(1-methyl-4-((4-(methylamino)-5-(trifluoromethyl)pyrimidin-2-yl)amino)-1H-indazol-7-yl)-1-morpholinobut-2-en-1-one]	< 50
CNc1nc(Nc2ccc(C(C)CC(=O)N3CCOCC3)c3c2cnn3C)ncc1C(F)(F)F (centres unmarked) [Example 60, 3-(1-methyl-4-((4-(methylamino)-5-(trifluoromethyl)pyrimidin-2-yl)amino)-1H-indazol-7-yl)-1-morpholinobutan-1-one]	< 50
CNc1nc(Nc2cnn3ccccc23)ncc1C(F)(F)F [Example 61, N4-methyl-N2-(pyrazolo[1,5-a]pyridin-3-yl)-5-(trifluoromethyl)pyrimidine-2,4-diamine]	< 50
CNc1nc(Nc2c(C)nn3ccccc23)ncc1C(F)(F)F [Example 62, N4-methyl-N2-(2-methylpyrazolo[1,5-a]pyridin-3-yl)-5-(trifluoromethyl) pyrimidine-2,4-diamine]	50 to 200
CNc1nc(Nc2c(C)[nH]c3ccccc23)ncc1C(F)(F)F [Example 63, N4-methyl-N2-(2-methyl-1H-indol-3-yl)-5-(trifluoromethyl)pyrimidine-2,4-diamine]	50 to 200
CNc1nc(Nc2c(C)n(C)c3ccccc23)ncc1C(F)(F)F [Example 64, N2-(1,2-dimethyl-1H-indol-3-yl)-N4-methyl-5-(trifluoromethyl)pyrimidine-2,4-diamine]	50 to 200
CNc1nc(Nc2c(C)nn3c(C#N)cccc23)ncc1C(F)(F)F [Example 65, 2-methyl-3-((4-(methylamino)-5-(trifluoromethyl)pyrimidin-2-yl)amino)pyrazolo[1,5-a]pyridine-7-carbonitrile]	≥ 200
CNc1nc(Nc2c(C)[nH]c3c(C#N)cccc23)ncc1C(F)(F)F [Example 66, 2-methyl-3-((4-(methylamino)-5-(trifluoromethyl)pyrimidin-2-yl)amino)-1H-indole-7-carbonitrile]	50 to 200
CNc1nc(Nc2nn(C)c3ccccc23)ncc1C(F)(F)F [Example 67, N4-methyl-N2-(1-methyl-1H-indazol-3-yl)-5-(trifluoromethyl)pyrimidine-2,4-diamine]	≥ 200
Cn1ncc2c(Nc3ncc(C(F)(F)F)c(NC4CC4)n3)cccc21 [Example 68, N4-cyclopropyl-N2-(1-methyl-1H-indazol-4-yl)-5-(trifluoromethyl)pyrimidine-2,4-diamine]	< 50
